Measured values reported in patent US20210122730A1, “GLUCOCORTICOID RECEPTOR MODULATORS” (ORIC Pharmaceuticals, Inc., priority 2017, published 2021).

What was measured:
[1] = molecular target: T1, GR (Homo sapiens, UniProt P04150); experiment: In Vitro GR Luciferase Reporter Assay (antagonist mode, CHO-K1-GR-MMTV-Luc reporter cells); format: cell-based; conditions: antagonist mode, 10 nM Dexamethasone
T1 construct: expressed in transfected cells; host or cells: CHO-K1
T1 sequence (P04150 1-777): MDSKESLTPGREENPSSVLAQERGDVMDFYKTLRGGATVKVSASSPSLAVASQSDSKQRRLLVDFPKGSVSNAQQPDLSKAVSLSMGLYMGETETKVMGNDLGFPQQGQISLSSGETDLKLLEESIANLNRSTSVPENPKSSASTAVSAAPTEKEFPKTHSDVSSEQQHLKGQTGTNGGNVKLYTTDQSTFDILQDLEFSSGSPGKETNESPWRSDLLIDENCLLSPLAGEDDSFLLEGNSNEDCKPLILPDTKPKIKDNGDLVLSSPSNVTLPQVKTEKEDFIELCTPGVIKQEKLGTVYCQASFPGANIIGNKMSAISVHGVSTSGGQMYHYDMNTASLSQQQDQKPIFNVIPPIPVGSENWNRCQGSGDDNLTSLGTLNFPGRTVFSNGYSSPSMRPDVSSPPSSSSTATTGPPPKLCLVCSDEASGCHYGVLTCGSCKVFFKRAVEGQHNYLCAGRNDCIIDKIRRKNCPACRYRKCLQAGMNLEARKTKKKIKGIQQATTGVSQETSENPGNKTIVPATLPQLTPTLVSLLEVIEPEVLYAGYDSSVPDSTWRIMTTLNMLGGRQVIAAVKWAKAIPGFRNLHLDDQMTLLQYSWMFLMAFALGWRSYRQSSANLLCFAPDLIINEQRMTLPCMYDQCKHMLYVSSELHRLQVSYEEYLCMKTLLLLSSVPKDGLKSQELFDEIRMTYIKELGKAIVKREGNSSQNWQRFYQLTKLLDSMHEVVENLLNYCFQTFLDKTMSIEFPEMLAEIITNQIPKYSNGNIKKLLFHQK
Outline: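 Antagonist mode: compounds (8 serial 1:5 dilutions) added to GR-MMTV-luciferase CHO-K1 reporter cells co-exposed to 10 nM dexamethasone final, in phenol red-free DMEM plus 10% CSS. After roughly 18-24 h at 37° C, OneGlo luminescence read and IC50 calculated.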

[2] = molecular target: T2, CYP2C8 (Homo sapiens, UniProt P10632); experiment: CYP Inhibition Assay (CYP2C8, human liver microsomes, paclitaxel substrate); format: in vitro ADME; conditions: pH 7.4; pooled human liver microsomes 0.1 mg/mL, probe substrate paclitaxel
T2 construct: Pooled human microsomes were obtained from Sekisui XenoTech, KS; tissue Sekisui XenoTech, KS; host or cells: pooled human liver microsomes
T2 sequence (P10632 1-490): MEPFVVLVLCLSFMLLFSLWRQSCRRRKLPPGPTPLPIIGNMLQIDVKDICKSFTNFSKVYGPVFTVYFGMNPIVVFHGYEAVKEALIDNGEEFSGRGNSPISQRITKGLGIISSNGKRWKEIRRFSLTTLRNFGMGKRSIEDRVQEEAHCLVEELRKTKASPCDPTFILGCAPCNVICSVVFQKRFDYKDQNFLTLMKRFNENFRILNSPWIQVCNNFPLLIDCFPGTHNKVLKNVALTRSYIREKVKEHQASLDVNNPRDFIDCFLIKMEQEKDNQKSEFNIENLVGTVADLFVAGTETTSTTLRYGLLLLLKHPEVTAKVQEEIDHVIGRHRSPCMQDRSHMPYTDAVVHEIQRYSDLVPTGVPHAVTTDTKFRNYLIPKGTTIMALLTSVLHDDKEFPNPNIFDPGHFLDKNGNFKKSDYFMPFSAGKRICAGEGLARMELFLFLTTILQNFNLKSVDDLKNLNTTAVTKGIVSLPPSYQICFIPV
Outline: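 CYP2C8 activity read as 6α-hydroxypaclitaxel formation by LC-MS/MS, with % inhibition versus vehicle control. Reactions ran 5 min at 37° C, pH 7.4 phosphate buffer, 0.1 mg/mL pooled human liver microsomes, 1 mM NADPH, duplicate wells.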

Compound	IC50 [1]	inhibition at 5 min [2]
Cn1cnc(S(=O)(=O)N(CC2CC2)[C@H]2CCC3=Cc4c(cnn4-c4ccc(F)cc4)C[C@]3(C(=O)c3ncc(C(F)(F)F)s3)C2)n1 [Example 315, N-(cyclopropylmethyl)-N-((4aS,6S)-1-(4-fluorophenyl)-4a-(5-(trifluoromethyl)thiazole-2-carbonyl)-4,4a,5,6,7,8-hexahydro-1H-benzo[f]indazol-6-yl)-1-methyl-1H-1,2,4-triazole-3-sulfonamide]	≤ 100 nM	25 to 50%
O=C(c1cc(F)ccn1)[C@]12Cc3cnn(-c4ccc(F)cc4)c3C=C1CC[C@H](N(CC1CC1)S(=O)(=O)c1ccc(Cl)nc1)C2 [Example 319, 6-chloro-N-(cyclopropylmethyl)-N-((4aS,6S)-1-(4-fluorophenyl)-4a-(4-fluoropicolinoyl)-4,4a,5,6,7,8-hexahydro-1H-benzo[f]indazol-6-yl)pyridine-3-sulfonamide]	≤ 100 nM	50 to 75%
O=C(c1cc(F)ccn1)[C@]12Cc3cnn(-c4ccc(F)cc4)c3C=C1CC[C@H](N(C1CC1)S(=O)(=O)c1ccc(Cl)nc1)C2 [Example 320, 6-chloro-N-cyclopropyl-N-((4aS,6S)-1-(4-fluorophenyl)-4a-(4-fluoropicolinoyl)-4,4a,5,6,7,8-hexahydro-1H-benzo[f]indazol-6-yl)pyridine-3-sulfonamide]	≤ 100 nM	25 to 50%
O=C(c1cc(Cl)ccn1)[C@]12Cc3cnn(-c4ccc(F)cc4)c3C=C1CC[C@H](N(C1CC1)S(=O)(=O)c1ccc(Cl)nc1)C2 [Example 321, 6-chloro-N-((4aS,6S)-4a-(4-chloropicolinoyl)-1-(4-fluorophenyl)-4,4a,5,6,7,8-hexahydro-1H-benzo[f]indazol-6-yl)-N-cyclopropylpyridine-3-sulfonamide]	≤ 100 nM	≤ 25%
CC(C)N([C@H]1CCC2=Cc3c(cnn3-c3ccc(F)cc3)C[C@]2(C(=O)c2cc(F)ccn2)C1)S(=O)(=O)c1ccc(Cl)nc1 [Example 322, 6-chloro-N-((4aS,6S)-1-(4-fluorophenyl)-4a-(4-fluoropicolinoyl)-4,4a,5,6,7,8-hexahydro-1H-benzo[f]indazol-6-yl)-N-isopropylpyridine-3-sulfonamide]	≤ 100 nM	25 to 50%
Cn1cnc(S(=O)(=O)N(C2CC(F)(F)C2)[C@H]2CCC3=Cc4c(cnn4-c4ccc(F)cc4)C[C@]3(C(=O)c3ncc(C(F)(F)F)s3)C2)n1 [Example 324, N-(3,3-difluorocyclobutyl)-N-((4aS,6S)-1-(4-fluorophenyl)-4a-(5-(trifluoromethyl)thiazole-2-carbonyl)-4,4a,5,6,7,8-hexahydro-1H-benzo[f]indazol-6-yl)-1-methyl-1H-1,2,4-triazole-3-sulfonamide]	≤ 100 nM	25 to 50%
Cn1cnc(S(=O)(=O)N(C2CC(F)(F)C2)[C@H]2CCC3=Cc4c(cnn4-c4ccc(F)cc4)C[C@]3(C(=O)c3cc(C(F)(F)F)ccn3)C2)c1 [Example 325, N-(3,3-difluorocyclobutyl)-N-((4aS,6S)-1-(4-fluorophenyl)-4a-(4-(trifluoromethyl)picolinoyl)-4,4a,5,6,7,8-hexahydro-1H-benzo[f]indazol-6-yl)-1-methyl-1H-imidazole-4-sulfonamide]	≤ 100 nM	≤ 25%
Cn1ccc(S(=O)(=O)N([C@H]2CCC3=Cc4c(cnn4-c4ccc(F)cc4)C[C@]3(C(=O)c3ncc(C(F)(F)F)s3)C2)[C@H]2C[C@](C)(O)C2)n1 [Example 326, N-((4aS,6S)-1-(4-fluorophenyl)-4a-(5-(trifluoromethyl)thiazole-2-carbonyl)-4,4a,5,6,7,8-hexahydro-1H-benzo[f]indazol-6-yl)-N-((1r,3S)-3-hydroxy-3-methylcyclobutyl)-1-methyl-1H-pyrazole-3-sulfonamide]	≤ 100 nM	50 to 75%
CC(C)N([C@H]1CCC2=Cc3c(cnn3-c3ccc(F)cc3)C[C@]2(C(=O)c2ncc(C(F)(F)F)s2)C1)S(=O)(=O)c1ncn(C)n1 [Example 327, N-((4aS,6S)-1-(4-fluorophenyl)-4a-(5-(trifluoromethyl)thiazole-2-carbonyl)-4,4a,5,6,7,8-hexahydro-1H-benzo[f]indazol-6-yl)-N-isopropyl-1-methyl-1H-1,2,4-triazole-3-sulfonamide]	≤ 100 nM	25 to 50%
CC(C)N([C@H]1CCC2=Cc3c(cnn3-c3ccc(F)cc3)C[C@]2(C(=O)c2cc(C(F)(F)F)ccn2)C1)S(=O)(=O)c1ncn(C)n1 [Example 328, N-((4aS,6S)-1-(4-fluorophenyl)-4a-(4-(trifluoromethyl)picolinoyl)-4,4a,5,6,7,8-hexahydro-1H-benzo[f]indazol-6-yl)-N-isopropyl-1-methyl-1H-1,2,4-triazole-3-sulfonamide]	≤ 100 nM	25 to 50%
Cn1cnc(S(=O)(=O)N(C2CC(F)(F)C2)[C@H]2CCC3=Cc4c(cnn4-c4ccc(F)cc4)C[C@]3(C(=O)c3cc(C(F)(F)F)ccn3)C2)n1 [Example 329, N-(3,3-difluorocyclobutyl)-N-((4aS,6S)-1-(4-fluorophenyl)-4a-(4-(trifluoromethyl)picolinoyl)-4,4a,5,6,7,8-hexahydro-1H-benzo[f]indazol-6-yl)-1-methyl-1H-1,2,4-triazole-3-sulfonamide]	≤ 100 nM	25 to 50%
Cn1cnc(S(=O)(=O)N(CC(F)F)[C@H]2CCC3=Cc4c(cnn4-c4ccc(F)cc4)C[C@]3(C(=O)c3cc(C(F)(F)F)ccn3)C2)n1 [Example 330, N-(2,2-difluoroethyl)-N-((4aS,6S)-1-(4-fluorophenyl)-4a-(4-(trifluoromethyl)picolinoyl)-4,4a,5,6,7,8-hexahydro-1H-benzo[f]indazol-6-yl)-1-methyl-1H-1,2,4-triazole-3-sulfonamide]	≤ 100 nM	25 to 50%
Cn1cnc(S(=O)(=O)N(CC(F)F)[C@H]2CCC3=Cc4c(cnn4-c4ccc(F)cc4)C[C@]3(C(=O)c3ncc(C(F)(F)F)s3)C2)n1 [Example 331, N-(2,2-difluoroethyl)-N-((4aS,6S)-1-(4-fluorophenyl)-4a-(5-(trifluoromethyl)thiazole-2-carbonyl)-4,4a,5,6,7,8-hexahydro-1H-benzo[f]indazol-6-yl)-1-methyl-1H-1,2,4-triazole-3-sulfonamide]	≤ 100 nM	≤ 25%
Cn1cnc(S(=O)(=O)N(C2CC(F)(F)C2)[C@H]2CCC3=Cc4c(cnn4-c4ccc(F)cc4)C[C@]3(C(=O)c3ncc(C(F)(F)F)s3)C2)c1 [Example 332, N-(3,3-difluorocyclobutyl)-N-((4aS,6S)-1-(4-fluorophenyl)-4a-(5-(trifluoromethyl)thiazole-2-carbonyl)-4,4a,5,6,7,8-hexahydro-1H-benzo[f]indazol-6-yl)-1-methyl-1H-imidazole-4-sulfonamide]	≤ 100 nM	≤ 25%
O=C(c1ncc(C(F)(F)F)s1)[C@]12Cc3cnn(-c4ccc(F)cc4)c3C=C1CC[C@H](N(C1CC1)S(=O)(=O)c1ccc(Cl)cn1)C2 [Example 333, 5-chloro-N-cyclopropyl-N-((4aS,6S)-1-(4-fluorophenyl)-4a-(5-(trifluoromethyl)thiazole-2-carbonyl)-4,4a,5,6,7,8-hexahydro-1H-benzo[f]indazol-6-yl)pyridine-2-sulfonamide]	≤ 100 nM	≤ 25%
O=C(c1cc(C(F)(F)F)ccn1)[C@]12Cc3cnn(-c4ccc(F)cc4)c3C=C1CC[C@H](N(C1CC1)S(=O)(=O)c1cncc(Cl)c1)C2 [Example 334, 5-chloro-N-cyclopropyl-N-((4aS,6S)-1-(4-fluorophenyl)-4a-(4-(trifluoromethyl)picolinoyl)-4,4a,5,6,7,8-hexahydro-1H-benzo[f]indazol-6-yl)pyridine-3-sulfonamide]	≤ 100 nM	50 to 75%
